PMC10901950, “Neuroprotective and Anti-inflammatory Effects of Rubiscolin-6 Analogs with Proline Surrogates in Position 2” (Neurochemical Research, 2023)
Numbered stars: 1 amine (or outer) side, 2 acyl side, 3 side chain; on linkers, the order of the positions; unused ones are H or OH. Square brackets hold non-standard residues; d marks the D form. Ends that are not written are not given here. Peptide text beside a SMILES is read from it. Nip(3R) = O=C([C@@H]1CCCN([*:1])C1)[*:2]; Dmt = Cc1cc(O)cc(C)c1C[C@H](N)C(=O)O; Inp = O=C(O)C1CCNCC1

Assays:
µ-opioid receptor [1] = biological target: T1, µ-opioid receptor (Homo sapiens, UniProt P35372); experiment: Calcium mobilisation assay, CHO cells with Gαqi5; format: cell-based; set-up: expressed in transfected cells; gift from Prof; Girolamo Calo, University of Padova; conditions: for µ-opioid receptors pEC50 (CL95%): agonist potency, mean ± SEM of three experiments in triplicate; for µ-opioid receptors pEC50 (CL95%) / µ-opioid receptors α ± SEM: Inactive = inactive as an agonist up to 1 µM; for µ-opioid receptors α ± SEM: intrinsic activity, Emax ratio to Dermorphin; for EC50: read-out: µ-opioid receptors pEC50 (CL95%) (converted)
Procedure: (§1) Chinese Hamster Ovary (CHO) cells stably co-expressing human recombinant µ- or κ-opioid receptors and the C-terminally modified Gαqi5, and CHO cells co-expressing the human recombinant δ-opioid receptors and the GαqG66Di5 chimeric protein (a generous gift from Prof. Girolamo Calo, University of Padova, Italy) were used in calcium mobilization assay, that was performed as reported in detail elsewhere. Cells were cultured in Dulbecco’s Modified Eagle’s Medium (DMEM)/Ham’s F12 (1:1) culture medium supplemented with 10% (v/v) Fetal Bovine Serum (FBS), penicillin (100 IU/mL), streptomycin (100 µg/mL), L-glutamine (2 mM), fungizone (1 µg/mL), geneticin (G418; 200 µg/mL) and hygromycin B (100 µg/mL). Cell cultures were kept at 37 °C in 5% CO2/humidified air. When confluence was reached (3–4 days), cells were seeded at a density of 50,000 cells/well into 96-well black, clear-bottom plates. After 24 h incubation, the cells were loaded with a medium supplemented with probenecid (2.5 mM), calcium-sensitive fluorescent dye Fluo-4 AM (3 µM), pluronic acid (0.01%), and HEPES (20 mM) and kept for 30 min at 37 °C. Then, the loading solution was aspirated, and 100 µL/well of assay buffer (HBSS supplemented with 20 mM HEPES, 2.5 mM probenecid, and 500 µM Brilliant Black) was added.
(§2) The tested peptides were diluted in the HBSS/HEPES (20 mM) buffer (containing 0.005% BSA) and placed into 96-well plates. The range of concentrations tested was 10 µM–1 × 10^–6 µM. After placing both plates (cell culture and compound plate) into the FlexStation II (Molecular Device, Union City, CA, USA), the online additions were carried out in a volume of 50 µL/well and the fluorescence changes were measured.
(§3) Concentration–response curves were fitted with the four-parameter logistic, nonlinear regression model: Effect=baseline+Emax- baseline/1+10^logEC50- Xn where X is the agonist concentration and n is the Hill coefficient. Ligand efficacies, expressed as the intrinsic activity (α), were calculated as the Emax ratio of the tested compound and the standard agonist.

δ-opioid receptor [2] = biological target: T2, δ-opioid receptor (Homo sapiens, UniProt P41143); experiment: Calcium mobilisation assay, CHO cells with GαqG66Di5; format: cell-based; set-up: expressed in transfected cells; host or cells: CHO cells; gift from Prof; Girolamo Calo, University of Padova; conditions: for δ-opioid receptors pEC50 (CL95%): agonist potency, mean ± SEM of three experiments in triplicate; for δ-opioid receptors pEC50 (CL95%) / δ-opioid receptors α ± SEM: Inactive = inactive as an agonist up to 1 µM; for δ-opioid receptors α ± SEM: intrinsic activity, Emax ratio to DPDPE; for EC50: read-out: δ-opioid receptors pEC50 (CL95%) (converted)
Procedure: as §1, §2, §3

µ-opioid receptor [3] = biological target: T1, µ-opioid receptor; experiment: Opioid receptor binding assay, [3H]DAMGO competition; set-up: purchased; host or cells: CHO cells (membranes); conditions: CHO cell membranes, 0.5 nM [3H]DAMGO, 25 °C, 120 min; mean ± SEM of four experiments in duplicate; read-out: Ki MOR
Procedure: (§4) The opioid receptor binding assays were performed using the modified method described elsewhere. Briefly, commercial membranes of Chinese Hamster Ovary (CHO) cells transfected with human opioid receptors were used. The binding affinities for µ-, δ- and κ-opioid receptors were determined by radioligand competition analysis using [^3H]DAMGO, [^3H]deltorphin-2, and [^3H]U-69593, respectively. Membranes were incubated at 25 °C for 120 min with appropriate concentrations of a tested peptide in the presence of 0.5 nM radioligand in a total volume of 0.5 mL of 50 mM Tris/HCl (pH 7.4) containing bovine serum albumin (BSA) (1 mg/mL), bacitracin (50 µg/mL), bestatin (30 µM), and captopril (10 µM). Non-specific binding was determined in the presence of 1 µM naloxone. Incubations were terminated by the rapid filtration through the GF/B Whatman (Brentford, UK) glass fibre strips (pre-soaked for 2 h in 0.5% (v/v) […]) using Millipore Sampling Manifold (Billerica, MA, USA). The filters were washed thrice with 4 mL of ice-cold Tris buffer solution. Packard Tri-Carb 2100 TR liquid scintillation counter (Ramsey, MN, USA) was used to measure the bound radioactivity after overnight extraction of the filters in 4 mL of a Perkin Elmer Ultima Gold scintillation fluid (Wellesley, MA, USA). The data were analyzed by a nonlinear least square regression analysis computer program Graph Pad PRISM 6.0 (Graph Pad Software Inc., San Diego, CA, USA). The values of the inhibitory constants (Ki) were calculated according to the equation of Cheng and Prusoff.
(§5) The ability of R-6 and its new analogs to bind to µ-, δ- and κ-opioid receptors was determined by competitive binding assays against [^3H]DAMGO, [^3H][Ile^5,6]deltorphin-2 and [^3H]U-69593, respectively, using membranes of CHO cells transfected with opioid receptors and are summarized in Table 2.

[4] = Degradation by the brain homogenate; format: in vitro ADME; conditions: rat brain homogenate 100 µL (10 mg protein/mL, 50 mM Tris-HCl pH 7.4) + 100 µL peptide 0.5 mM, final 200 µL, 37 °C, 0-60 min, HPLC read-out, ln 2/k; mean ± SEM of four independent experiments in duplicate; read-out: T0.5 (degradation half-life)
Procedure: The degradation studies were performed on the rat brain homogenate according to the modified method described elsewhere. Briefly, rat brains, after isolation and homogenization in 50 mM Tris–HCl (pH 7.4), were stored at − 80 °C until used. During the test, the aliquots (100 µL, 10 mg protein/mL) were incubated with 100 µL of a peptide (0.5 mM) over 0, 7.5, 15, 22.5, 30, and 60 min at 37 °C in a final volume of 200 µL. The reaction was stopped at the required time by placing the tube on ice and acidifying it with 20 µL of 1 M aqueous HCl solution. Then, the aliquots were centrifuged at 20,000×g for 10 min at 4 °C. The obtained supernatants were filtered and analyzed by HPLC on a Vydac C18 column (5 µm, […]) using the solvent system of 0.1% trifluoroacetic acid (TFA) in water (A) and 80% acetonitrile in water containing 0.1% TFA (B) and a linear gradient of 0–100% B over 25 min. The rate constants of degradation (k) were obtained as described earlier by a least square linear regression analysis of logarithmic peak areas [ln(A/AD)], where A—the amount of peptide remaining, AD—the initial amount of peptide, versus time. Degradation half-lives (t1/2) were calculated from the rate constants as ln 2/k.

δ-opioid receptor [5] = biological target: T2, δ-opioid receptor; experiment: Opioid receptor binding assay, [3H][Ile5,6]deltorphin-2 competition; set-up: purchased; host or cells: CHO cells (membranes); conditions: CHO cell membranes, 0.5 nM [3H][Ile5,6]deltorphin-2, 25 °C, 120 min; mean ± SEM of four experiments in duplicate; read-out: Ki DOR
Procedure: as §4, §5

T1 sequence (P35372 whole entry): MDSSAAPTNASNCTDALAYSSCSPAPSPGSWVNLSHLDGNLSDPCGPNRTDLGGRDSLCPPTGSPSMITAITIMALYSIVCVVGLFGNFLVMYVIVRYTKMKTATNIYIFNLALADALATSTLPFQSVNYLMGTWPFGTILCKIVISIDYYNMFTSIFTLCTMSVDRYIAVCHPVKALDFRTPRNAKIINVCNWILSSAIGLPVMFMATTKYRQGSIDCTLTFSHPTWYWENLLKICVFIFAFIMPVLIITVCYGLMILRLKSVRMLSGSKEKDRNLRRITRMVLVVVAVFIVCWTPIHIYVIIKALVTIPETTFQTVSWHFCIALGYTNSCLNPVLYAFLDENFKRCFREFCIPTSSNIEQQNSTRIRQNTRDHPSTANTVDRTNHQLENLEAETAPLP
T2 sequence (P41143 whole entry): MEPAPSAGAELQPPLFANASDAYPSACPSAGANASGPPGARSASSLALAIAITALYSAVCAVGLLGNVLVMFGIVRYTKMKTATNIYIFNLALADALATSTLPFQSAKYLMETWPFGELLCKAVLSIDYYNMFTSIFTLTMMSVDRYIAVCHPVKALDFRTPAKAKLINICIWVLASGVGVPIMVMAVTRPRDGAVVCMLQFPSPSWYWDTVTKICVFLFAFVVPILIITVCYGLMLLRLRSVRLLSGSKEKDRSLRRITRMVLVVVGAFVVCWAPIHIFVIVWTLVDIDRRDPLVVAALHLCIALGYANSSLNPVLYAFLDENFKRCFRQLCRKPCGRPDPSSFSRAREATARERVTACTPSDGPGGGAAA

YPLDLF-NH2 [analog 6, Tyr-Pro-Leu-Asp-Leu-Phe-NH2]
µ-opioid receptors pEC50 (CL95%) (µ-opioid receptor [1]): Inactive | µ-opioid receptors α ± SEM (µ-opioid receptor [1]): Inactive | δ-opioid receptors pEC50 (CL95%) (δ-opioid receptor [2]): Inactive | δ-opioid receptors α ± SEM (δ-opioid receptor [2]): Inactive | Ki (µ-opioid receptor [3]): > 1000 nM | half-life at 0.25 mM [4]: 23.2 ± 1.05 min | Ki (δ-opioid receptor [5]): > 1000 nM

YPLDLF [R-6, rubiscolin-6]
µ-opioid receptors pEC50 (CL95%) (µ-opioid receptor [1]): Inactive | µ-opioid receptors α ± SEM (µ-opioid receptor [1]): Inactive | EC50 (δ-opioid receptor [2]): 5620 nM | Ki (µ-opioid receptor [3]): > 1000 nM | half-life at 0.25 mM [4]: 14.3 ± 0.8 min | Ki (δ-opioid receptor [5]): 11.5 ± 2.25 nM

CC(C)C[C@H](NC(=O)C1CCN(C(=O)[C@@H](N)Cc2ccc(O)cc2)CC1)C(=O)N[C@@H](CC(=O)O)C(=O)N[C@@H](CC(C)C)C(=O)N[C@@H](Cc1ccccc1)C(N)=O [analog 7, Tyr-Inp-Leu-Asp-Leu-Phe-NH2] (H-Y[Inp]LDLF-NH2)
µ-opioid receptors pEC50 (CL95%) (µ-opioid receptor [1]): Inactive | µ-opioid receptors α ± SEM (µ-opioid receptor [1]): Inactive | δ-opioid receptors pEC50 (CL95%) (δ-opioid receptor [2]): Inactive | δ-opioid receptors α ± SEM (δ-opioid receptor [2]): Inactive | Ki (µ-opioid receptor [3]): > 1000 nM | half-life at 0.25 mM [4]: 30.7 ± 0.35 min | Ki (δ-opioid receptor [5]): 773 ± 137 nM

Cc1cc(O)cc(C)c1C[C@H](N)C(=O)N1CCC(C(=O)N[C@@H](CC(C)C)C(=O)N[C@@H](CC(=O)O)C(=O)N[C@@H](CC(C)C)C(=O)N[C@@H](Cc2ccccc2)C(=O)O)CC1 [analog 5, Dmt-Inp-Leu-Asp-Leu-Phe-OH] (H-[Dmt][Inp]LDLF-OH)
µ-opioid receptors α ± SEM (µ-opioid receptor [1]): 0.11 ± 0.04 | EC50 (µ-opioid receptor [1]): 7590 nM | δ-opioid receptors α ± SEM (δ-opioid receptor [2]): 0.39 ± 0.02 | EC50 (δ-opioid receptor [2]): 22400 nM | Ki (µ-opioid receptor [3]): 712 ± 101 nM | half-life at 0.25 mM [4]: 38.5 ± 0.7 min | Ki (δ-opioid receptor [5]): 13.1 ± 3.08 nM

Cc1cc(O)cc(C)c1C[C@H](N)C(=O)N1CCC[C@@H](C(=O)N[C@@H](CC(C)C)C(=O)N[C@@H](CC(=O)O)C(=O)N[C@@H](CC(C)C)C(=O)N[C@@H](Cc2ccccc2)C(=O)O)C1 [analog 4, Dmt-(R)-Nip-Leu-Asp-Leu-Phe-OH] (H-[Dmt][Nip(3R)]LDLF-OH)
µ-opioid receptors pEC50 (CL95%) (µ-opioid receptor [1]): Inactive | µ-opioid receptors α ± SEM (µ-opioid receptor [1]): Inactive | δ-opioid receptors pEC50 (CL95%) (δ-opioid receptor [2]): Inactive | δ-opioid receptors α ± SEM (δ-opioid receptor [2]): Inactive | Ki (µ-opioid receptor [3]): > 1000 nM | half-life at 0.25 mM [4]: 30.4 ± 1.2 min | Ki (δ-opioid receptor [5]): > 1000 nM

Cc1cc(O)cc(C)c1C[C@H](N)C(=O)N1CCC[C@H]1C(=O)N[C@@H](CC(C)C)C(=O)N[C@@H](CC(=O)O)C(=O)N[C@@H](CC(C)C)C(=O)N[C@@H](Cc1ccccc1)C(=O)O [analog 1, Dmt-Pro-Leu-Asp-Leu-Phe-OH] (H-[Dmt]PLDLF-OH)
µ-opioid receptors α ± SEM (µ-opioid receptor [1]): 0.22 ± 0.05 | EC50 (µ-opioid receptor [1]): 2000 nM | δ-opioid receptors pEC50 (CL95%) (δ-opioid receptor [2]): Inactive | δ-opioid receptors α ± SEM (δ-opioid receptor [2]): Inactive | Ki (µ-opioid receptor [3]): 599 ± 84.5 nM | half-life at 0.25 mM [4]: 20.8 ± 0.85 min | Ki (δ-opioid receptor [5]): 91.7 ± 29.7 nM

CC(C)C[C@H](NC(=O)C1CCN(C(=O)[C@@H](N)Cc2ccc(O)cc2)CC1)C(=O)N[C@@H](CC(=O)O)C(=O)N[C@@H](CC(C)C)C(=O)N[C@@H](Cc1ccccc1)C(=O)O [analog 3, Tyr-Inp-Leu-Asp-Leu-Phe-OH] (H-Y[Inp]LDLF-OH)
µ-opioid receptors pEC50 (CL95%) (µ-opioid receptor [1]): Inactive | µ-opioid receptors α ± SEM (µ-opioid receptor [1]): Inactive | δ-opioid receptors pEC50 (CL95%) (δ-opioid receptor [2]): Inactive | δ-opioid receptors α ± SEM (δ-opioid receptor [2]): Inactive | Ki (µ-opioid receptor [3]): > 1000 nM | half-life at 0.25 mM [4]: 28.6 ± 0.95 min | Ki (δ-opioid receptor [5]): 734 ± 31.3 nM

CC(C)C[C@H](NC(=O)[C@@H]1CCCN(C(=O)[C@@H](N)Cc2ccc(O)cc2)C1)C(=O)N[C@@H](CC(=O)O)C(=O)N[C@@H](CC(C)C)C(=O)N[C@@H](Cc1ccccc1)C(=O)O [analog 2, Tyr-(R)-Nip-Leu-Asp-Leu-Phe-OH] (H-Y[Nip(3R)]LDLF-OH)
µ-opioid receptors pEC50 (CL95%) (µ-opioid receptor [1]): Inactive | µ-opioid receptors α ± SEM (µ-opioid receptor [1]): Inactive | δ-opioid receptors pEC50 (CL95%) (δ-opioid receptor [2]): Inactive | δ-opioid receptors α ± SEM (δ-opioid receptor [2]): Inactive | Ki (µ-opioid receptor [3]): > 1000 nM | half-life at 0.25 mM [4]: 25.5 ± 0.4 min | Ki (δ-opioid receptor [5]): > 1000 nM
